From US20230230249A1, “DIGITAL ANTIMICROBIAL SUSCEPTIBILITY TESTING” (ARIZONA BOARD OF REGENTS ON BEHALF OF ARIZONA STATE …, priority 2020, published 2023)

Tested on: E. coli ATCC 25922
Assay: Digital AST by LVSi single-cell division tracking, pure E. coli samples
Type: cell-based
Settings: for bacterial cell growth (normalized cumulative division events) versus control: different batches of E. coli; for average counting number of cell spots during 5-min video: 37° C., stationary phase cells
Protocol: E. coli ATCC 25922 were purchased from American Type Culture Collection (ATCC) and stored at −80° C. in 5% glycerol. Antibiotics, including ciprofloxacin and ampicillin were purchased from Sigma-Aldrich. The antibiotic powders were stored in the dark at 2 to 8° C. Frozen E. coli strains were thawed, and 50 μL of the cells were cultured in 5 mL of Luria-Bertani (LB) medium (per liter: 10 g peptone 140, 5 g yeast extract, and 5 g sodium chloride) at 37° C. and 150 rpm for 15 h. Then the overnight cultured E. coli was inoculated into LB broth directly. After dilution to appropriate cell concentrations, antibiotics were added to the E. coli suspensions.
The dual channel LVSi system depicted in FIG. 1A was used, with two 800 mW, 780 nm infrared (IR) LEDs (M780LP1, Thorlabs, Inc., USA), each with collimating and focusing lenses and a central blocking aperture to focus a ring-shaped illumination through the sample or the reference cuvettes. Wide-view and deep field depth scattering images were recorded by two CMOS cameras (BFS-U3-16S2M-CS, Point Grey Research Inc., Canada) at 10 fps through two 2×variable zoom lens (NAVITAR 12×, Navitar, USA), for the sample and reference cuvettes, respectively. The image volume was determined by the viewing size and focal depth of the optics. For these experiments, the viewing area of 2.5 mm×1.9 mm×1.0 mm was equivalent to 4.8 μL at 2.0× magnifying power. The imaging system was enclosed in a thermally isolated housing with a controlled temperature (37° C.).
Individual cells recorded by LVSi are resolved as bright spots. Before division tracking, each spot was detected with a Laplacian of Gaussian (LoG) filter with defined radius and threshold. Then, the spots from adjacent time frames were connected with a Karman filter for directional linking. So each bright spot became a single-cell trajectory. To track the division events, the newly appeared cell trajectories (those from the image edges excluded) were first filtered out as the child trajectory candidates, and for each child trajectory candidate, the nearby old trajectories (appeared before the child trajectory candidate) were checked. If there was a close-by old trajectory split at the start time of the child trajectory candidate, a potential division event was tracked. To filter out the merge/crossing induced splitting, the spots merging events were also checked and were filtered out from the potential division events. Finally, an intensity filter was used to evaluate the remaining division events, ensuring the parent cell intensity is about the summation of the two divided child ones, and the two child ones are similar in size.
To validate that the tracked division events were due to real cell growth, rather than an artifact of the particle merging or crossing, a division over-counting calibration test was designed. To rule out the real division events, the E. coli cells were heated at ˜65° C. for 15 min. Then, each 5-min video of the heated E. coli cells with different concentrations (2.0×10^4˜2.0×10^5 CFU/mL, corresponding to 100-1000 spots in image view) were analyzed for single-cell division tracking. Each concentration test was repeated three times. Then, the division over-counting calibration curve was extracted from the tracking results. The division over-counting is less an issue when the cell number is below 500, corresponding to the bacterial concentration of about 1.0×10^5 CFU/mL. When the cell number is above 500, some miss-counting of division events occurred. To rule out the cell density induced division over-counting, the final division events in all clinical samples were calibrated by subtracting the cell density associated over counted division events.
The statistical error of the division tracking was estimated by the mentioned division over-counting calibration. […]

CC1(C)S[C@@H]2[C@H](NC(=O)[C@H](N)c3ccccc3)C(=O)N2[C@H]1C(=O)O [ampicillin]
bacterial cell growth (normalized cumulative division events) versus control (16 μg/mL ampicillin, 60 min (FIG. 5C, 5D)): clear inhibition in bacterial cell growth

O=C(O)c1cn(C2CC2)c2cc(N3CCNCC3)c(F)cc2c1=O [ciprofloxacin]
cumulative division events growth curve compared with control (2 μg/mL ciprofloxacin, 60 min (FIG. 4F)): no obvious increases in the growth curve | bacterial cell growth (normalized cumulative division events) versus control (2 μg/mL ciprofloxacin, 60 min (FIG. 5A, 5B)): clear inhibition in bacterial cell growth | average counting number of cell spots during 5-min video (2 μg/mL ciprofloxacin, snapshot at 5 min): 118±8 | average counting number of cell spots during 5-min video (2 μg/mL ciprofloxacin, snapshot at 30 min): 114±5 | average counting number of cell spots during 5-min video (2 μg/mL ciprofloxacin, snapshot at 60 min): 106±4
